# Values quoted from earlier work as cited in patent US5989558A, “Method of using rosmarinus officinalis for treating various diseases” (priority 1997, dated 1999).
# Read-outs that look alike come from different tables or passages of the source.
# Assays:
# [1] = 400 mg three times a day
compound,measurement,setting,value
Fc1ccc(C(c2ccc(F)cc2)N2CCN(C/C=C/c3ccccc3)CC2)cc1 [flunarizine],nausea as side effect,"treatment of dizziness, poor hearing, and tinnitus",all of the drugs cause nausea
CC(=O)CCCCn1c(=O)c2c(ncn2C)n(C)c1=O [pentoxifylline],ulcers healed,[1]; after 60 days,7 ulcers
same,further ulcer healed,[1]; after 120 days,Another ulcer healed after 120 days
same,patients able to complete the six month program,"[1]; of 12 patients, limited by side effects",9 patients
same,ulcer size reduction,"[1]; one ulcer, after six months",reduced in size from 4 cm to 2 cm
same,nausea as side effect,in vivo,all of the drugs cause nausea
